Experimental data taken from patent publication US20240327423A1, “A SERIES OF PYRROLE DERIVATIVES AND THEIR PREPARATION METHOD AND THERAPEUTIC USE” (SHENZHEN SUNGENING BIO-MEDICAL CO., LTD, priority 2020, published 2024).
Values after ≈ are worked out from the molar mass of the structure shown. Values joined by “and” are separate entries in the source; they are usually repeats but may differ in a detail not shown here. Identical values can stand only once. Like-named read-outs stand apart in the source and are kept apart here.

Experiments:
[1] = Pharmacokinetic test in SD rats, single oral administration; type: in vivo; details: 10 mg/kg, single oral administration 10 mg/kg, test compound mixed with F901318, plasma; for Cmax: read-out: Cmax; for Tmax: read-out: Tmax; for half-life: read-out: T½ (converted)
Description: Pharmacokinetic study is performed on SD rats receiving single oral administration of each test compound mixed with F901318 (10 mg/kg, 3 rats per group). Test compounds and F901318 are dissolved with […]+10% solutol+85% saline, vortexed for 1-2 mins and ultra-sonicated for 5-10 mins to form a colorless clear drug solution. The animals are fasted overnight before oral administration, and resumed feeding 4 hours after administration. After oral administration, pharmacokinetic samples are collected from orbital blood of SD rats at 0.083 h, 0.25 h, 0.5 h, 1 h, 2 h, 4 h, 6 h, 8 h, and 24 h, and three whole blood samples are collected at each time point in a volume of 0.2-0.3 mL. Blood samples are placed on ice immediately after collected, and the plasma is separated by centrifugation within 15 min (centrifugation conditions: 8000 rpm, 1 min, and at room temperature).
The collected plasma is stored at −20° C. prior to analysis. Transfer 20 μL of plasma sample into an 0.5 mL EP tube, add 200 μL of working internal standard solution (blank group is without internal standard, using the same volume of solvent instead), vortex and mix for 3 min centrifuge at 13500 rpm for 10 min, take 100 μL of supernatant and analyze with LC-MS/MS.

[2] = system: Aspergillus fumigatus (ATCC-204305); assay: Measurement of minimum inhibitory concentration (MIC), ATCC 204305; type: cell-based; details: ATCC204305; Aspergillus fumigatus ATCC 204305, 35° C., 48 hours
Description: New streaks are made with glycerol stock solution of the strains of Aspergillus [NT] MYA-4609/AF 293/CBS 101355) on Sabouraud's dextrose agar (SDA), incubate at 35° C. and a humidity of 40-70% for 72 hours. Other strains are processed as the same as AF293. RPMI1640: one packet of RPMI1640 powder is dissolved in 1 L purified water and mixed well, add 0.165M MOPS, adjust the pH to 7.0, sterilize by filtration with 0.22 um membrane, and store at 4° C. for no more than 3 months. Physiological saline: weigh 9 g of sodium chloride powder and dissolve in 1 L of purified water, and mixed well. […] Dissolve the test compound and stock solution of one control compound with DMSO and obtain solutions at a concentration of 12.8 mg/mL The maximum concentration of each compound is 0.8 mg/mL (e.g., 150 μL of dimethyl sulfoxide+10 uL of 12.8 mg/mL compound/control). […] Repeat the above steps up to column 11 to give 2× serial dilutions. 2 μL of the above 2× serial dilutions are injected into each hole of the corresponding test plate using a multichannel pipette. Drop 5 ml of saline on the Aspergillus fumigatus SDA plate. The spores were carefully wiped off from the surface of the plate with an L-shaped coating rod. Then the suspension is transferred into a sterile tube. After shaking, let the tube stand for 5 to 10 minutes. Count the number of spores in the upper suspension with a hemocytometer and check the purity. Adjust the inoculum concentration to 0.2-2.5×10^4 spores/mL. Inject 198 μL of diluted inoculum into each holes of the corresponding test plate using a multichannel pipette. Incubate at 35° C. for 48 hours. […] To facilitate scoring of the presence or absence of growth on the wall, a magnifying glass is used. The tested 96-well microplates were photographed and the optical density at 530 nm is read with an enzyme marker (Tecan Spark).

[3] = system: Aspergillus flavus (ATCC 204304); assay: Measurement of minimum inhibitory concentration (MIC), ATCC 204304; type: cell-based; details: ATCC204304; Aspergillus flavus ATCC 204304, 35° C., 48 hours
Description: New streaks are made with glycerol stock solution of the strains of Aspergillus fumigatus (ATCC MYA-4609/AF 293/CBS 101355) on Sabouraud's dextrose agar (SDA), incubate at 35° C. and a humidity of 40-70% for 72 hours. Other strains are processed as the same as AF293.
RPMI1640: one packet of RPMI1640 powder is dissolved in 1 L purified water and mixed well, add 0.165M MOPS, adjust the pH to 7.0, sterilize by filtration with 0.22 um membrane, and store at 4° C. for no more than 3 months.
Physiological saline: weigh 9 g of sodium chloride powder and dissolve in 1 L of purified water, and mixed well. Sterilize at 121° C. for 30 min, store at room temperature (RT) for no more than 1 week.
Dissolve the test compound and stock solution of one control compound with DMSO and obtain solutions at a concentration of 12.8 mg/mL
The maximum concentration of each compound is 0.8 mg/mL (e.g., 150 μL of dimethyl sulfoxide+10 uL of 12.8 mg/mL compound/control). Column 1 is filled with 40 μL of compound and columns 2 to 11 with 20 μL of dimethyl sulfoxide. Transfer 20 μL of compound from column 1 to column 2 to dilute the concentration. Repeat the above steps up to column 11 to give 2× serial dilutions.
2 μL of the above 2× serial dilutions are injected into each hole of the corresponding test plate using a multichannel pipette.
Drop 5 ml of saline on the Aspergillus fumigatus SDA plate. The spores were carefully wiped off from the surface of the plate with an L-shaped coating rod. Then the suspension is transferred into a sterile tube. After shaking, let the tube stand for 5 to 10 minutes. Count the number of spores in the upper suspension with a hemocytometer and check the purity. Adjust the inoculum concentration to 0.2-2.5×10^4 spores/mL.
Inject 198 μL of diluted inoculum into each holes of the corresponding test plate using a multichannel pipette.
Incubate at 35° C. for 48 hours.
To facilitate scoring of the presence or absence of growth on the wall, a magnifying glass is used. The tested 96-well microplates were photographed and the optical density at 530 nm is read with an enzyme marker (Tecan Spark).

[4] = SD, rat, plasma, po, read-out: AUC

SMILES	AUC [1, 4] [ng·h/mL]	AUC [1]	MIC [2] [µg/mL]	MIC [3] [µg/mL]	Cmax ([1]; SD, rat, plasma, po) [ng/mL]	Tmax ([1]; SD, rat, plasma, po) [h]	half-life ([1]; SD, rat, plasma, po) [h]
Cc1cc(-c2ccccc2)c(C(=O)C(=O)Nc2ccc(N3CCN(c4ncc(F)cn4)CC3)cc2)n1C [Example F901318, reference compound]	7540	9170.038 ng·h/mL and 7652.703 ng·h/mL and 9641.325 ng·h/mL	0.016 (≈ 0.0321 µM)	0.004 (≈ 0.00802 µM)	–	–	–
Cc1cc(-c2ccccc2)c(C(=O)C(=O)Nc2cc(F)c3c(c2)OC[C@H]2CN(c4ncc(F)cn4)CCN32)n1C [Example 5]	16000	–	0.016 (≈ 0.0294 µM)	0.004 (≈ 0.00735 µM)	1930	1	4.29
Cc1cc(-c2ccccc2)c(C(=O)C(=O)Nc2ccc3c(c2)C[C@H]2CN(c4ncc(F)cn4)CCN32)n1C [Example 33, (S)-2-(1,5-dimethyl-3-phenyl-1H-pyrrol-2-yl)-N-(2-(5-fluoropyrimidin-2-yl)-1,2,3,4,10,10a-hexahydropyrazino[1,2-a]indol-8-yl)-2-oxoacetamide]	36100	–	0.016 (≈ 0.0313 µM)	0.008 (≈ 0.0157 µM)	3490	1	7.52
